Laboratory results reported in US20200371122A1, “BIOMARKER FOR SENESCENT CELLS” (Buck Institute for Research on Aging, priority 2017, published 2020).

Experiments:
Type in all cases: cell-based, human
[1] = system: SASP factors; assay: qPCR of SASP and PTGS mRNAs in non-senescent cells treated with eicosanoids; conditions: 10 μM, for PGJ2 and 15d-PGJ2 most factors except VEGF and PDGF
Method: RNA was extracted from cells or tissues using commercially available kits (Isolate II—Bioline for cells; Direct-zol—Zymo for tissues) according to the manufacturer's instructions. cDNA synthesis was performed using a High Capacity cDNA Reverse Transcription Kit (Thermo Fisher) according to the manufacturer's instructions. Quantitative PCR was performed on a LightCycler 480 II (Roche) using primers and probes designed for the Universal Probe Library. Primers and probes used for human transcripts were ACTB: 5′-CCAACCGCGAGAAGATGA (SEQ ID NO:1), 5′-TCCATCACGATGCCAGTG (SEQ ID NO:2), Probe #64; TUBA: 5′-cttcgtctccgccatcag (SEQ ID NO:3), 5′-ttgccaatctggacacca (SEQ ID NO:4), Probe #58; ALOX5: 5′-[…] (SEQ ID NO:5), 5′-[…] (SEQ ID NO:6), Probe #64; ALOX5AP: 5′-ggtctgcggggctacttt (SEQ ID NO:7), 5′-[…] (SEQ ID NO:8), Probe #18; ALOX12: 5′-[…] (SEQ ID NO:9), 5′-agccaggtcgtcaggag (SEQ ID NO:10), Probe #32; ALOX15: 5′-[…] (SEQ ID NO:11), 5′-[…] (SEQ ID NO:12), Probe #76; ALOX15B: 5′-[…] (SEQ ID NO:13), 5′-actgggaggcgaagaagg (SEQ ID NO:14), Probe #51; AKR1C1: 5′-catgcctgtcctgggattt (SEQ ID NO:15), 5′-[…] (SEQ ID NO:16), Probe #49; AKR1C2: 5′-ctatgcgcctgcagaggt (SEQ ID NO:17), 5′-[…] (SEQ ID NO:18), Probe #31; AKR1C3: 5′-[…] (SEQ ID NO:19), 5′-[…] (SEQ ID NO:20), Probe #78; CYSLTR2: 5′-[…] (SEQ ID NO:21), 5′-[…] (SEQ ID NO:22), Probe #18; DPEP1: 5′-gacgtcctgaggctggtg (SEQ ID NO:23), 5′-[…] (SEQ ID NO:24), Probe #9 (SEQ ID NO:25), ELOVL2: 5′-[…] (SEQ ID NO:26), 5′-[…] (SEQ ID NO:27), Probe #53; ELOVL4: 5′-catttggcccatggattc (SEQ ID NO:28), 5′-[…] (SEQ ID NO:29), Probe #31; ELOVL5: 5′-cccttccatgcgtccata (SEQ ID NO:30), 5′-[…] (SEQ ID NO:31), Probe #31; EPHX2: 5′-ttctgctggacaccctgaa (SEQ ID NO:32), 5′-[…] (SEQ ID NO:33), Probe #45; GPX4: 5′-ttcccgtgtaaccagttcg (SEQ ID NO:34), 5′-[…] (SEQ ID NO:35), Probe #36; LTA4H: 5′-ctgctctcacggtccagtc (SEQ ID NO:36), 5′-[…] (SEQ ID NO:37), Probe #64; LTBR2: 5′-[…] (SEQ ID NO:38), 5′-[…] (SEQ ID NO:39), Probe #33; LTC4S: 5′-[…] (SEQ ID NO:40), 5′-[…] (SEQ ID NO:41), Probe #18; PTGDS: 5′-[…] (SEQ ID NO:42), 5′-[…] […]

[2] = system: IMR-90 fibroblasts; assay: Induction of senescence in non-senescent cells by prostaglandins or 5-LOX pathway products (EdU, SA-B-gal, p21, immunoblot); conditions: 10 μM, 10 days
Method: RNA was extracted from cells or tissues using commercially available kits (Isolate II—Bioline for cells; Direct-zol—Zymo for tissues) according to the manufacturer's instructions. cDNA synthesis was performed using a High Capacity cDNA Reverse Transcription Kit (Thermo Fisher) according to the manufacturer's instructions. Quantitative PCR was performed on a LightCycler 480 II (Roche) using primers and probes designed for the Universal Probe Library. Primers and probes used for human transcripts were ACTB: 5′-CCAACCGCGAGAAGATGA (SEQ ID NO:1), 5′-TCCATCACGATGCCAGTG (SEQ ID NO:2), Probe #64; TUBA: 5′-cttcgtctccgccatcag (SEQ ID NO:3), 5′-ttgccaatctggacacca (SEQ ID NO:4), Probe #58; ALOX5: 5′-[…] (SEQ ID NO:5), 5′-[…] (SEQ ID NO:6), Probe #64; ALOX5AP: 5′-ggtctgcggggctacttt (SEQ ID NO:7), 5′-[…] (SEQ ID NO:8), Probe #18; ALOX12: 5′-[…] (SEQ ID NO:9), 5′-agccaggtcgtcaggag (SEQ ID NO:10), Probe #32; ALOX15: 5′-[…] (SEQ ID NO:11), 5′-[…] (SEQ ID NO:12), Probe #76; ALOX15B: 5′-[…] (SEQ ID NO:13), 5′-actgggaggcgaagaagg (SEQ ID NO:14), Probe #51; AKR1C1: 5′-catgcctgtcctgggattt (SEQ ID NO:15), 5′-[…] (SEQ ID NO:16), Probe #49; AKR1C2: 5′-ctatgcgcctgcagaggt (SEQ ID NO:17), 5′-[…] (SEQ ID NO:18), Probe #31; AKR1C3: 5′-[…] (SEQ ID NO:19), 5′-[…] (SEQ ID NO:20), Probe #78; CYSLTR2: 5′-[…] (SEQ ID NO:21), 5′-[…] (SEQ ID NO:22), Probe #18; DPEP1: 5′-gacgtcctgaggctggtg (SEQ ID NO:23), 5′-[…] (SEQ ID NO:24), Probe #9 (SEQ ID NO:25), ELOVL2: 5′-[…] (SEQ ID NO:26), 5′-[…] (SEQ ID NO:27), Probe #53; ELOVL4: 5′-catttggcccatggattc (SEQ ID NO:28), 5′-[…] (SEQ ID NO:29), Probe #31; ELOVL5: 5′-cccttccatgcgtccata (SEQ ID NO:30), 5′-[…] (SEQ ID NO:31), Probe #31; EPHX2: 5′-ttctgctggacaccctgaa (SEQ ID NO:32), 5′-[…] (SEQ ID NO:33), Probe #45; GPX4: 5′-ttcccgtgtaaccagttcg (SEQ ID NO:34), 5′-[…] (SEQ ID NO:35), Probe #36; LTA4H: 5′-ctgctctcacggtccagtc (SEQ ID NO:36), 5′-[…] (SEQ ID NO:37), Probe #64; LTBR2: 5′-[…] (SEQ ID NO:38), 5′-[…] (SEQ ID NO:39), Probe #33; LTC4S: 5′-[…] (SEQ ID NO:40), 5′-[…] (SEQ ID NO:41), Probe #18; PTGDS: 5′-[…] (SEQ ID NO:42), 5′-[…] (SEQ ID NO:43), Probe #36; PTGES: 5′-agagatgcctgcccacag (SEQ ID NO:44), 5′-tggccaccacgtacatctt (SEQ ID NO:45), Probe #4; PTGES2: 5′-[…] (SEQ ID NO:46), 5′-[…] (SEQ ID NO:47), Probe #49; PTGES3 (SEQ ID NO:48), 5′-[…] (SEQ ID NO:49), 5′-[…] (SEQ ID NO:50), Probe #48; PTGIS: 5′-[…] (SEQ ID NO:51), 5′-[…] (SEQ ID NO:52), Probe #45; PTGR1: 5′-atgatggggcagcaagtg (SEQ ID NO:53), 5′-cccatcagaaatggagtgc (SEQ ID NO:54), Probe #64; PTGS1: 5′-[…] (SEQ ID NO:55), 5′-gtggtggtccatgttcctg (SEQ ID NO:56), Probe #81; PTGS2: 5′-gatccccagggctcaaac (SEQ ID NO:57), 5′-[…] (SEQ ID NO:58), Probe #61; TBXAS1: 5′-[…] (SEQ ID NO:59), 5′-tgcctcccgtgtgaatct (SEQ ID NO:60), Probe #73; AREG: 5′-[…] (SEQ ID NO:61), 5′-[…] (SEQ ID NO:62), Probe #73; CCL2: 5′-AGTCTCTGCCGCCCTTCT (SEQ ID NO:63), 5′-GTGACTGGGGCATTGATTG (SEQ ID NO:64), Probe #40; CCL27: 5′-[…] (SEQ ID NO:65), 5′-gctgggtggcagtaggaat (SEQ ID NO:66), Probe #18; CXCL1: 5′-[…] (SEQ ID NO:67), 5′-[…] (SEQ ID NO:68), Probe #52; HGF: 5′-[…] (SEQ ID NO:69), 5′-[…] (SEQ ID NO:70), Probe #49; ILIA: 5′-[…] (SEQ ID NO:71), 5′-[…] (SEQ ID NO:72), Probe #6; IL1B: 5′-[…] (SEQ ID NO:73), 5′-[…] (SEQ ID NO:74), Probe #78; IL6: 5′-[…] (SEQ ID NO:75), 5′-gaaggcagcaggcaacac (SEQ ID NO:76), Probe #45; IL8: 5′-[…] (SEQ ID NO:77), 5′-atggttccttccggtggt (SEQ ID NO:78), Probe #72; IL10: 5′-[…] (SEQ ID NO:79), 5′-[…] (SEQ ID NO:80), Probe #67; MMP3: 5′-[…] (SEQ ID NO:81), 5′-[…] (SEQ ID NO:82), Probe #36; PDGFA: 5′-[…] (SEQ ID NO:83), 5′-[…] (SEQ ID NO:84), Probe #80; VEGF: 5′-[…] (SEQ ID NO:85), 5′-[…] (SEQ ID NO:86), Probe #50; P21WAF1(CDKN1A): 5′-[…]

[3] = system: PPARγ; assay: PPARγ luciferase reporter in irradiated IMR-90 fibroblasts; conditions: senescent cells, 10 days
Source text: Lentiviral NF-κB reporter constructs (SA Biosciences) and baculoviral PPAR gamma constructs (Signosis) were transduced into proliferating cells. Following treatment, luciferase was extracted using Passive Lysis Buffer (Promega) and analyzed using a commercially available kit (Promega) using a Perkin-Elmer Victor™ X3 luminometer.

Compound | SASP factor mRNAs [1] | p21 gene expression [2] | senescence-associated beta-galactosidase [2] | p21 protein accumulation ([2]; immunoblot) | PPARγ activation reduced [3]
CCCCC/C=C/C=C1/C(=O)C=C[C@@H]1C/C=C\CCCC(=O)O [15d-PGJ2] | strongly induced | induced | induced | induced | –
CS(=O)(=O)Nc1ccc([N+](=O)[O-])cc1OC1CCCCC1 [NS-398] | – | – | – | – | ~50%
